Data published in patent US20130316963A1, “INNATE DEFENCE REGULATORY PEPTIDE COMPOSITIONS FOR TREATMENT OF ARTHRITIS” (UNIVERSITY OF MANITOBA, priority 2010, published 2013).

Tested on: human FLS cells
Assay: Cytokine and chemokine production in human FLS cell supernatants (BD Cytometric Bead Array)
Format: cell-based
Method: Tissue culture supernatants were harvested after stimulation of human FLS cells with various cytokines (as indicated) with and without IDR peptides after 24 hr. The supernatants were centrifuged at 1500×g for 7 min to obtain cell-free samples. The samples were aliquoted and stored at −20° C. until further use. Production of MMP-3 in the tissue culture supernatants was monitored using Quantikine® human MMP-3 (total) ELISA kit (Quantikine is a registered trademark of R&D Systems, Inc. Minneapolis, Minn., USA) as per the manufacturer's instructions. Production of pro-inflammatory cytokines IL-1β, IL-6, IL-10, TNF, IL-12p70 and chemokines IL-8, RANTES, MIG, MCP-1, IP-10 in the tissue culture supernatants was determined using preconfigured multiplex BD Cytometric Bead Array (CBA) human inflammation and chemokine kits respectively, employing the FACS Calibur flow cytometer (BD Biosciences, Mississauga, ON, Canada) as per the manufacture's instructions. The concentration of the cytokines or chemokines in the tissue culture supernatants was evaluated by establishing a standard curve with serial dilutions of the recombinant human cytokines or chemokines as required.
To evaluate whether IDR-1002 alone could induce inflammatory responses, human FLS cells were stimulated with IDR-1002 (100 μg/ml) for 24 hr. BD Cytometric Bead Array (CBA) preconfigured human inflammation (IL-8, IL-1β, IL-6, IL-10, TNF, IL-12p70) kit was used to evaluate protein secretion of the various analytes in the tissue culture supernatants employing FACS Calibur flow cytometer.
IL-1β-induced protein profiles (proteome) in the presence and absence of IDR-1002 were evaluated using quantitative proteomics iTRAQ® tools employing different isobaric tags. Human FLS cells were treated with IDR-1002 (100 μg/ml) for 45 min prior to IL-1β (10 ng/ml) stimulation for 24 hr. Tissue culture supernatants were monitored for protein production of MMP-3 and chemokines IL-8 and MCP-1 production, in order to evaluate the validity of the assay before processing the cell lysates for quantitative proteomic evaluation. MMP-3 production was monitored in the tissue culture supernatants by ELISA, and chemokines IL-8 and MCP-1 production were evaluated by BD preconfigured human chemokine Cytometric Bead Array.

With VQRWLIVWRIRK (IDR-1002 peptide) the “IL-10 and IL-12p70 in supernatants by flow cytometry” value (IDR-1002 100 μg/ml alone, 24 hr) was “could not be detected”, the “suppression of IL-1β-induced chemokine MCP-1 production” value (IDR-1002 100 μg/ml for 45 min prior to IL-1β 10 ng/ml, 24 hr, FIG. 2B) was greater than 60% and the “suppression of IL-1β-induced chemokine IL-8 production” value (IDR-1002 100 μg/ml for 45 min prior to IL-1β 10 ng/ml, 24 hr, FIG. 2C) was 20%. For the same sequence, the “release of pro-inflammatory cytokines TNF-α, IL-1β or IL6 by peptide alone” value (IDR-1002 100 μg/ml, 24 hr, vs un-stimulated control cells, data not shown) was “did not induce” and the “chemokine production induced by peptide by itself in FLS” value (IDR-1002 alone, human FLS) was “did not induce chemokine production by itself”.
